Data from patent US20260137707A1, “METHODS OF MODULATING ATXN2 EXPRESSION” (University of Utah Research Foundation, priority 2022, published 2026).
“Also recorded” adds a separate entry of the source. Where two headings read alike, the source gives them in different places.

Experiments:
ATXN2-Q22 = assay: BAC-Q22 mice, ATXN2 western blot; assay type: in vivo; conditions: for reduction of ATXN2 protein abundance: ATXN2-BAC mice, IP, 17-DMAG 100 mg/kg, HSP990 4 mg/kg; for ATXN2 abundance: BAC-Q22 mice, IP every other day, 17-DMAG 100 mg/kg 16 days, HSP990 4 mg/kg 10 days
Experimental: (§1) BAC-ATXN2-Q22 (BAC-Q22) mice were used as previously described. BAC-Q22 are transgenic for the complete human ATXN2 gene with all introns and exons, including 16 kb upstream sequence driving ATXN2 expression and the complete 3′-UTR. The mice used in this study were maintained on a mixed B6;D2 background with backcrossing to wildtype vendor-purchased (Jackson Laboratories) mice every five generations. Mice were treated with 17-DMAG or HSP990 by intraperitoneal (IP) injection, 200-300 μl total volume. 17-DMAG was diluted in 40% DMSO and 0.05% Tween 20 and mice received 100 mg/kg 17-DMAG. HSP990 was diluted in 0.6% DMSO and 0.05% Tween 20 and mice received 4 mg/kg HSP990. Control treated mice included vehicle alone. Mice were treated repeatedly as described in Results. Mouse husbandry and surgical procedures were in accordance to Institutional Animal Care and Use Committee (IACUC) approved protocols.
Proteins were prepared, separated on precast polyacrylamide gels (Bio-Rad), transferred to Hybond (Amersham) and detected by ECL (Amersham) as previously described.
(§2) Antibodies included the following: mouse monoclonal anti-Ataxin-2 antibody (Clone 22/Ataxin-2) (BD Biosciences, 611378), rabbit monoclonal anti-Hsp70 antibody (EPR16892) (Abcam, ab181606), mouse monoclonal anti-β-Actin-peroxidase antibody (clone AC-15) (Sigma-Aldrich, A3854), rabbit polyclonal anti-Staufen antibody (Novus Biologicals, NBP1-33202), mouse monoclonal anti-CHOP (L63F7) antibody (Cell Signaling Technology, 2895), rabbit polyclonal anti-phospho-eIF2a (Ser51) antibody (Cell Signaling Technology, 9721), rabbit polyclonal anti-mTOR antibody (Cell Signaling Technology, 2972), rabbit polyclonal anti-SQSTM1/p62 antibody (Cell Signaling Technology, 5114), rabbit polyclonal anti-LC3B antibody (Novus Biologicals, NB100-2220), rabbit monoclonal anti-BiP antibody (C50B12) (Cell Signaling Technology, 3177). Secondary antibodies included peroxidase-conjugated horse anti-mouse IgG (Vector Laboratories, PI-2000) and peroxidase AffiniPure goat anti-rabbit IgG (Jackson ImmunoResearch Laboratories, 111-035-144).
Since 17-DMAG reduced expression of both the wildtype and mutant ATXN2 proteins, its effects were tested using only ATXN2-BAC mice harboring the non-mutant human ATXN2-Q22 gene (BAC-Q22 mice). Reliable detection of mutant ATXN2 protein by western blot in samples isolated from SCA2 BAC mice is possible, but it is challenging and involves use of the 1C2 antibody. To test efficacy of 17-DMAG in the wildtype ATXN2 mice, 27 wk old BAC-Q22 mice were treated (n=4 per group, 2 males, 2 females) every other day over 16-days (days 1, 3, 5, 7, 9, 11, 13, 15) then sacrificed on day 16. […] Three blots were quantified.

HSP70 [1] = assay: BAC-Q22 mice, HSP70 western blot; assay type: in vivo; conditions: IP every other day, 17-DMAG 100 mg/kg, HSP990 4 mg/kg
Experimental: as §1
Proteins were prepared, separated on precast polyacrylamide gels (Bio-Rad), transferred to Hybond (Amersham) and detected by ECL (Amersham) as previously described. […]
Since 17-DMAG reduced expression of both the wildtype and mutant ATXN2 proteins, its effects were tested using only ATXN2-BAC mice harboring the non-mutant human ATXN2-Q22 gene (BAC-Q22 mice). […] Three blots were quantified.

[2] = BAC-Q22 mice, survival / tolerability; assay type: in vivo; conditions: IP every other day, 17-DMAG 100 mg/kg, HSP990 4 mg/kg
Experimental: as §1
Since 17-DMAG reduced expression of both the wildtype and mutant ATXN2 proteins, its effects were tested using only ATXN2-BAC mice harboring the non-mutant human ATXN2-Q22 gene (BAC-Q22 mice). Reliable detection of mutant ATXN2 protein by western blot in samples isolated from SCA2 BAC mice is possible, but it is challenging and involves use of the 1C2 antibody. […] Three blots were quantified. […]

[3] = cited from earlier work
ATXN2-luc [4] = assay: Secondary assays, Bright-Glo luciferase in H2 and S2 cells; assay type: cell-based
Experimental: (§3) Compounds were plated at 2× concentrations in 25 μl in 384 well plates with each compound dose plated in triplicate. An equal volume of S2, H2, or SC cells (24,000 cells/well) suspended in phenol-red free Dulbecco's Modified Eagle Medium (DMEM) with 10% fetal bovine serum and 1× penicillin/streptomycin were added. Cells were grown 24 hrs then assayed first by using the CellTiter-Fluor reagent (20 μl) followed by the addition of Bright-Glo ([…]) luciferase assay, using a multimode plate reader (Beckman DT880). Values were reported as the mean±standard deviation (SD) with n=3. IC50s were determined by the Hill coefficient method using an online tool (https://www.aatbio.com/tools/ic50-calculator).
(§4) These 46 compounds were retested at 12 doses and a zero-compound dose, in multiplexed assays in 96-well plates using CellTiter-Fluor to determine cell viability, then Bright-Glo to determine luciferase expression. The values for H2 and S2 were used as replicates to calculate IC50s and to assess cell viability.
(§5) For CMV-luc and viability charts, the fitted lines are second-order polynomials. Means and SD are shown.

CMV-luc = assay: Secondary assays, Bright-Glo luciferase in SC cells; assay type: cell-based; conditions: minimum CMV-luc luciferase in SC cells over 12 doses
Experimental: as §3, §5

H2, S2, and SC cells = assay: Secondary assays, CellTiter-Fluor viability; conditions: minimum cell viability, CellTiter-Fluor, over 12 doses
Experimental: as §3, §4, §5

ATXN2-luc [5] = assay: Orthogonal ATXN2-luc luciferase assay in H2 cells; assay type: cell-based
Description: (§6) Probabilities are from one-way ANOVA and post-hoc Bonferroni corrected t-tests: ns, not significant; **, P<0.01.

H2 cells = assay: Orthogonal paired MTT viability in H2 cells; assay type: cell-based; conditions: at 1 nM
Experimental: ATXN2 expression associates with the expression of the proscillaridin A target ATP1A2. […] The cells were also evaluated for viability by MTT assay. Values shown are means and standard deviations. HEK-293 cells were then treated with increasing doses of proscillaridin A for either 24 and 48 hours, showing >50% reduction of endogenous ATXN2 when cells were treated with 1 nM proscillaridin A at 48 hours.

endogenous ATXN2 = assay: Endogenous ATXN2 expression in HEK-293 cells by qPCR; assay type: cell-based
Description: (§7) Total RNA was extracted from cells cultured in 24-well plates using the RNeasy Mini-Kit (Qiagen Inc.) according to the manufacturer's protocol. DNAse I treated RNAs were used to synthesize cDNA using ProtoScript cDNA synthesis kit (New England Biolabs Inc.). Sets of primers used for qPCR included ATXN2 primers ATXN2-F (5′-[sequence]-3′) & ATXN2-R (5′-[sequence]-3′), ATP1A2 primers ATP1A2-F (5′-[sequence]-3′) & ATP1A2-R (5′-[sequence]-3′), GAPDH primers GAPDH-F133 (5′-[sequence]-3′) & GAPDH-R333 (5′-[sequence]-3′), and mouse Actb primers Actb-F (5′-[sequence]-3′) & Actb-R (5′-[sequence]-3′). qPCR was performed in the Bio-Rad CFX96 instrument (Bio-Rad Inc.) with the Power SYBR Green PCR master mix (Applied Biosystems Inc.). PCR amplification was carried out for 45 cycles. Cycling parameters were denaturation (95° C. for 10 s), annealing (60° C. for 10 s), extension (72° C. for 40 s).
as §6

ATXN2-luc [6] = conditions: H2 cells
ATXN2-luc [7] = conditions: average ATXN2-luc response of H2 and S1 cells
ATXN2-luc mRNA = ATXN2-luc mRNA abundance in H2 cells by quantitative PCR; assay type: cell-based; conditions: 1 and 10 uM, 48 hrs
Description: as §7
The ATXN2-luc mRNA abundance was determined by quantitative PCR using primers that amplify the luciferase gene. Probabilities are from one-way ANOVA and post-hoc Bonferroni corrected t-tests: ns, not significant; **, P<0.01.

[8] = system: endogenous non-mutant ATXN2 protein; assay: Western blot of endogenous non-mutant ATXN2 protein in HEK-293 cells; assay type: cell-based; conditions: western blotting
mutant ATXN2-Q58 protein = assay: Western blot of mutant ATXN2-Q58 protein in HEK-293 KI cells; assay type: cell-based; conditions: western blotting
Description: The n number of blots ranged from 3 to 9.

HSP70 [9] = assay: Western blot of HSP70 in cells (HSP90 target engagement); assay type: cell-based; conditions: cultured cells, western blotting
Description: as §6
Probabilities are from one-way ANOVA and post-hoc Bonferroni corrected t-tests: ns, not significant; *, p<0.05; **, p<0.01, ***, p<0.001. The n number of blots ranged from 3 to 9.

[10] = system: STAU1, mTOR, p62, LC3b, CHOP, eIF3α, BiP; assay: Western blot of STAU1, autophagy and UPR proteins in ATXN2-Q58 HEK-293 KI cells; assay type: cell-based
Description: as §2
To determine if lowering ATXN2-Q58 in HEK-293 KI cells could restore pathways that are abnormal in SCA2, several proteins were evaluated by western blotting and RNAs by quantitative PCR following 17-DMAG treatment. […] Probabilities are from one-way ANOVA and post-hoc Bonferroni corrected t-tests: ns, not significant; *, p<0.05; **, p<0.01, ***, p<0.001. […]

ATXN3 = conditions: ATXN3-135Q transgenic mice, cited from earlier work
[11] = cited from earlier work; remark: listed apart in the source

With `COc1cccc(-c2cc(F)ccc2[C@H]2Cc3nc(N)nc(C)c3C(=O)N2)n1` [HSP990] the “reduction of ATXN2 protein abundance” value (ATXN2-Q22) was 80%, the ATXN2 abundance (ATXN2-Q22) was “reduced ATXN2 abundance” and the HSP70 (HSP70 [1]) was “increased HSP70”. The survival / tolerability [2] was “the two females in the HSP990 treatment group did not survive; also recorded: half of the mice treated with HSP990 did not survive treatment” and the “toxicity in clinical trial” value [3] was “dose-limiting neurotoxicities”.
For `C[C@@H]1O[C@@H](O[C@@H]2C=C3CC[C@@H]4[C@H](CC[C@]5(C)[C@@H](c6ccc(=O)oc6)CC[C@]45O)[C@@]3(C)CC2)[C@H](O)[C@H](O)[C@H]1O` [Proscillaridin A], the IC50 (ATXN2-luc [4]; H2 and S2 used as replicates, 24 hrs, read-out: IC50 (ATXN2-luc, secondary assays)) was 17 nM, the “min ATXN2-luc” value (ATXN2-luc [4]; minimum ATXN2-luc luciferase over 12 doses, H2 and S2 cells) was 7.986% and the “min SC luc” value (CMV-luc) was 122%. It also gave a min viability (H2, S2, and SC cells) of 74.18%, an IC50 (ATXN2-luc [5]; H2 cells treated for 48 hrs, read-out: IC50 (ATXN2-luc expression)) of 0.052 nM and an ATXN2-luc reduction (ATXN2-luc [5]; H2 cells, at 1 nM) of 80%. For the same compound, the “cellular viability (MTT method)” value (H2 cells) was “minimal effect on cellular viability”, the “reduction of endogenous ATXN2” value (endogenous ATXN2; 1 nM, 48 hours) was > 50% and the IC50 (endogenous ATXN2; 48 hrs) was 677 nM. The “SD from Mean” value (ATXN2-luc [6]; Table 1, 24 hrs, single 10 μM dose, Z-score of luciferase) was −7.684 SD, the “SD from Mean” value (ATXN2-luc [6]; Table 5S, pilot screen, 10 μM) was −7.684 SD and the “Luc at 1 μm” value (ATXN2-luc [7]; 1 μm) was 54. For the same compound, the “Luc at 10 μm” value (ATXN2-luc [7]; 10 μm) was 22.
For `CO[C@H]1/C=C\C=C(/C)C(=O)NC2=CC(=O)C(NCCN(C)C)=C(C[C@@H](C)C[C@H](OC)[C@H](O)[C@@H](C)/C=C(\C)[C@@H]1OC(N)=O)C2=O` [17-DMAG, 17-dimethylaminoethylamino-17-demethoxygeldanamycin], the ATXN2-luc transcription (ATXN2-luc mRNA) was “reduction of ATXN2-luc transcription”, the “expression of endogenous non-mutant ATXN2 protein” value [8] was “reduced the expression; also recorded: reduction of endogenous non-mutant ATXN2 protein” and the “mutant ATXN2-Q58 protein” value (mutant ATXN2-Q58 protein) was “reduced the expression; also recorded: significantly reduced mutant ATXN2 protein; also recorded: reduction of ATXN2 protein”. For the same compound, the HSP70 (HSP70 [9]) was “elevated HSP70; also recorded: increase in HSP70”, the BiP [10] was “further elevated BiP” and the “abundance of STAU1, autophagy marker proteins (mTOR, p62, LC3b) and UPR proteins CHOP and eIF3α” value [10] was “restored abundance”. For the same compound, the “reduction of ATXN2 protein abundance” value (ATXN2-Q22) was 90%, the ATXN2 abundance (ATXN2-Q22) was “reduced ATXN2 abundance” and the HSP70 (HSP70 [1]) was “HSP70 induction”. For the same compound, the survival / tolerability [2] was “well-tolerated”, the ATXN3 protein abundance (ATXN3; CNS tissues) was “reduced ATXN3 protein abundance in CNS tissues” and the motor coordination (ATXN3) was “improved motor coordination”. For the same compound, the oral bioavailability [11] was “orally bioavailable”.
